From patent US10738072B1, “Nucleotide analogues” (Singular Genomics Systems, Inc., priority 2018, dated 2020) come the findings set out here.

In this assay the target is T1, modified thermophilic polymerase (Therminator 3, from New England BioLabs) (Thermococcus sp., UniProt Q56366, D141A/E143A/L408S/P410V/Y409A).
T1 construct: purchased New England BioLabs
The assay can be described thus: Incorporation of 3′-terminated nucleotides by a modified thermophilic polymerase. It is filed as biochemical, Thermococcus sp. 9 degrees N-7. Conditions: pH 8.5, nucleotides at 200 nM, 4 mM Mg, 55° C.; polymerase pre-bound to primed DNA template. The text has this: Another important property of a nucleotide with a reversible terminator (e.g., 3′ cleavable moiety as described herein) is the ability to be rapidly incorporated by a DNA polymerase. Naturally occurring DNA polymerases are typically not capable of incorporating nucleotides modified with reversible terminator (e.g., 3′ cleavable moiety as described herein) at the 3′ position on the ribose of the nucleotide. As known in the art, a number of thermophilic polymerases have been engineered to enable the incorporation of nucleotides modified with 3′ terminators. […] The reaction was carried out in a buffered solution at pH 8.5, with nucleotides at 200 nM concentration, 4 mM Mg, at a temperature of 55° C. The polymerase was pre-bound to the primed DNA template. All three terminated nucleotides are efficiently incorporated by the modified DNA polymerase. The polymerase can be further modified for desired properties such as incorporation rate and accuracy.

T1 sequence (Q56366 whole entry D141A/E143A/L408S/Y409A/P410V): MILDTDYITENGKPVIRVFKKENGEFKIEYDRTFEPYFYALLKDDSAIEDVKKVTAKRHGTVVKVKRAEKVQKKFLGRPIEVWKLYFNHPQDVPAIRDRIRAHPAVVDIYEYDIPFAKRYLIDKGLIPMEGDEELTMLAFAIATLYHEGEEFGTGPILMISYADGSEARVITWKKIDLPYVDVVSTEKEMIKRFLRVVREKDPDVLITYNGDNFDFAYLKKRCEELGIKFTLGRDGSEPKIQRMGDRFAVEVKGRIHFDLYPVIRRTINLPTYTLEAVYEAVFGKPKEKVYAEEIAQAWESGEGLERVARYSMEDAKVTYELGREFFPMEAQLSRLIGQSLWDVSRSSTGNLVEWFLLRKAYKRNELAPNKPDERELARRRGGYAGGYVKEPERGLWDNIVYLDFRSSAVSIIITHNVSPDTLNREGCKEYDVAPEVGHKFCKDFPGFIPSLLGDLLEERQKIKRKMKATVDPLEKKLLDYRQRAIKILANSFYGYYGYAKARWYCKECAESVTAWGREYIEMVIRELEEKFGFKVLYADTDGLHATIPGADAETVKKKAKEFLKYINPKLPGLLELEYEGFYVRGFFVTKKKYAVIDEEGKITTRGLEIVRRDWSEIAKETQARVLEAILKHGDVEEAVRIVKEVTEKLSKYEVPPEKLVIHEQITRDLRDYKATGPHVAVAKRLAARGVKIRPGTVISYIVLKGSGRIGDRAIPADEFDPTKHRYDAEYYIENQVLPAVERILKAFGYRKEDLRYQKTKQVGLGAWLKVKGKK

Regarding `CSSCOC1CC(n2cc(C)c(=O)[nH]c2=O)OC1COP(=O)(O)OP(=O)(O)OP(=O)(O)O` (stereo not shown) [RT #1, 3′O—CH2—S—S—CH3], the Incorporation half-time is 14 ± 3 s.
